Each compound was assayed against IDO1 (Homo sapiens, UniProt P14902) (assay: IDO1 Cellular Assay in HeLa Cells Stimulated with IFNγ). Conditions: read-out: HeLa Cell Potency, IC50.
Format: cell-based

Sequence of IDO1 (P14902 whole entry): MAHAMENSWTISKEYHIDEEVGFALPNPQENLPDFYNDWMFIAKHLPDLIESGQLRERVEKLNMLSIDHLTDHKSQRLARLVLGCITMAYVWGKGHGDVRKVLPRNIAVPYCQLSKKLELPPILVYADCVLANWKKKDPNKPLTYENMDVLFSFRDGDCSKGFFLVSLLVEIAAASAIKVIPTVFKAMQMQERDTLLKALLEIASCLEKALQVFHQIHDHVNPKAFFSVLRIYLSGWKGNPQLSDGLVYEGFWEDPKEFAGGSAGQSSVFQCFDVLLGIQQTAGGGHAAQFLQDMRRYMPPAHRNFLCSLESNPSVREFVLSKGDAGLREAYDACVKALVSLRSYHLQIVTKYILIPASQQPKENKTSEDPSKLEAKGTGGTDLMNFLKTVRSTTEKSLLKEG

| SMILES | IC50 |
| --- | --- |
| Cc1c(Cl)cccc1N1CCN(C(=O)Cn2nc(C(=O)N3CCC(NCCO)CC3)c3c2C[C@H]2C[C@@H]32)C2(CC2)C1 [Example 313, 1-[7-(3-chloro-2-methylphenyl)-4,7-diazaspiro[2.5]octan-4-yl]-2-[(3bR,4aR)-3-{4-[(2-hydroxyethyl)amino]piperidine-1-carbonyl}-3b,4,4a,5-tetrahydro-1H-cyclopropa[3,4]cyclopenta[1,2-c]pyrazol-1-yl]ethan-1-one] | 67.5 nM |
| Cc1c(Cl)cccc1N1CCN(C(=O)Cn2nc(C(=O)N3CCN(CCO)CC3)c3c2C[C@H]2C[C@@H]32)C2(CC2)C1 [Example 316, 1-[7-(3-chloro-2-methylphenyl)-4,7-diazaspiro[2.5]octan-4-yl]-2-{(3bR,4aR)-3-[4-(2-hydroxyethyl)piperazine-1-carbonyl]-3b,4,4a,5-tetrahydro-1H-cyclopropa[3,4]cyclopenta[1,2-c]pyrazol-1-yl}ethan-1-one] | 2.26 nM |
| Cc1c(F)ccc(N2CCN(C(=O)Cn3nc(C(=O)N4CC[C@@H](O)[C@H](F)C4)c4c3C[C@H]3C[C@@H]43)C3(CC3)C2)c1C [Example 318, 1-[7-(4-fluoro-2,3-dimethylphenyl)-4,7-diazaspiro[2.5]octan-4-yl]-2-{(3bR,4aR)-3-[(3R,4R)-3-fluoro-4-hydroxypiperidine-1-carbonyl]-3b,4,4a,5-tetrahydro-1H-cyclopropa[3,4]cyclopenta[1,2-c]pyrazol-1-yl}ethan-1-one] | 1.41 nM |
| Cc1c(N2CCN(C(=O)Cn3nc(C(=O)N4CCC(O)(CF)CC4)c4c3C[C@H]3C[C@@H]43)CC2)cccc1C(F)(F)F [Example 336, 2-((3bR,4aR)-3-(4-(fluoromethyl)-4-hydroxypiperidine-1-carbonyl)-3b,4,4a,5-tetrahydro-1H-cyclopropa[3,4]cyclopenta[1,2-c]pyrazol-1-yl)-1-(4-(2-methyl-3-(trifluoromethyl)phenyl)piperazin-1-yl)ethanone] | 0.78 nM |
| Cc1c(N2CCN(C(=O)Cn3nc(C(=O)N4CCN(C(=O)CO)CC4)c4c3C[C@H]3C[C@@H]43)CC2)cccc1C(F)(F)F [Example 337, 2-hydroxy-1-(4-((3bR,4aR)-1-(2-(4-(2-methyl-3-(trifluoromethyl)phenyl)piperazin-1-yl)-2-oxoethyl)-3b,4,4a,5-tetrahydro-1H-cyclopropa [3,4]cyclopenta[1,2-c]pyrazole-3-carbonyl)piperazin-1-yl)ethanone] | 2.85 nM |
| CC(=O)NC1CCN(C(=O)c2nn(CC(=O)N3CCN(c4cccc(C(F)(F)F)c4C)CC3)c3c2[C@@H]2C[C@@H]2C3)CC1 [Example 340, N-(1-((3bR,4aR)-1-(2-(4-(2-methyl-3-(trifluoromethyl)phenyl)piperazin-1-yl)-2-oxoethyl)-3b,4,4a,5-tetrahydro-1H-cyclopropa[3,4]cyclopenta[1,2-c]pyrazole-3-carbonyl)piperidin-4-yl)acetamide] | 2.46 nM |
| Cc1c(N2CCN(C(=O)Cn3nc(C(=O)N4CCC(OCCO)CC4)c4c3C[C@H]3C[C@@H]43)CC2)cccc1C(F)(F)F [Example 341, 2-((3bR,4aR)-3-(4-(2-hydroxyethoxy)piperidine-1-carbonyl)-3b,4,4a,5-tetrahydro-1H-cyclopropa[3,4]cyclopenta[1,2-c]pyrazol-1-yl)-1-(4-(2-methyl-3-(trifluoromethyl)phenyl)piperazin-1-yl)ethanone] | 1.64 nM |
| Cc1c(N2CCN(C(=O)Cn3nc(C(=O)N4CCO[C@H](CO)C4)c4c3C[C@H]3C[C@@H]43)CC2)cccc1C(F)(F)F [Example 342, 2-((3bR,4aR)-3-((S)-2-(hydroxymethyl)morpholine-4-carbonyl)-3b,4,4a,5-tetrahydro-1H-cyclopropa[3,4]cyclopenta[1,2-c]pyrazol-1-yl)-1-(4-(2-methyl-3-(trifluoromethyl)phenyl)piperazin-1-yl)ethanone] | 2.16 nM |
| Cc1c(N2CCN(C(=O)Cn3nc(C(=O)N4CCO[C@@H](CO)C4)c4c3C[C@H]3C[C@@H]43)CC2)cccc1C(F)(F)F [Example 343, 2-((3bR,4aR)-3-((R)-2-(hydroxymethyl)morpholine-4-carbonyl)-3b,4,4a,5-tetrahydro-1H-cyclopropa [3,4]cyclopenta[1,2-c]pyrazol-1-yl)-1-(4-(2-methyl-3-(trifluoromethyl)phenyl)piperazin-1-yl)ethanone] | 1.91 nM |
| Cc1c(C(F)F)cccc1N1CCN(C(=O)Cn2nc(C(=O)N3CCN(C(=O)CO)CC3)c3c2C[C@H]2C[C@@H]32)CC1 [Example 344, 1-(4-(3-(difluoromethyl)-2-methylphenyl)piperazin-1-yl)-2-((3bR,4aR)-3-(4-(2-hydroxyacetyl)piperazine-1-carbonyl)-3b,4,4a,5-tetrahydro-1H-cyclopropa[3,4]cyclopenta[1,2-c]pyrazol-1-yl)ethanone] | 6.52 nM |
| Cc1c(C(F)F)cccc1N1CCN(C(=O)Cn2nc(C(=O)N3CCC(OCCO)CC3)c3c2C[C@H]2C[C@@H]32)CC1 [Example 345, 1-(4-(3-(difluoromethyl)-2-methylphenyl)piperazin-1-yl)-2-((3bR,4aR)-3-(4-(2-hydroxyethoxy)piperidine-1-carbonyl)-3b,4,4a,5-tetrahydro-1H-cyclopropa[3,4]cyclopenta[1,2-c]pyrazol-1-yl)ethanone] | 1.88 nM |
| Cc1c(C(F)F)cccc1N1CCN(C(=O)Cn2nc(C(=O)N3CCC(O)CC3)c3c2C[C@H]2C[C@@H]32)CC1 [Example 346, 1-(4-(3-(difluoromethyl)-2-methylphenyl)piperazin-1-yl)-2-((3bR,4aR)-3-(4-hydroxypiperidine-1-carbonyl)-3b,4,4a,5-tetahydro-1H-cyclopropa[3,4]cyclopenta[1,2-c]pyrazol-1-yl)ethanone] | 0.86 nM |
| Cc1c(C(F)F)cccc1N1CCN(C(=O)Cn2nc(C(=O)N3CC[C@@H](O)[C@@H](F)C3)c3c2C[C@H]2C[C@@H]32)CC1 [Example 347, 1-(4-(3-(difluoromethyl)-2-methylphenyl)piperazin-1-yl)-2-((3bR,4aR)-3-((3S,4R)-3-fluoro-4-hydroxypiperidine-1-carbonyl)-3b,4,4a,5-tetrahydro-1H-cyclopropa[3,4]cyclopenta[1,2-c]pyrazol-1-yl)ethanone] | 2.73 nM |
| Cc1c(C(F)F)cccc1N1CCN(C(=O)Cn2nc(C(=O)N3CC[C@H](O)[C@H](F)C3)c3c2C[C@H]2C[C@@H]32)CC1 [Example 348, 1-(4-(3-(difluoromethyl)-2-methylphenyl)piperazin-1-yl)-2-((3bR,4aR)-3-((3R,4S)-3-fluoro-4-hydroxypiperidine-1-carbonyl)-3b,4,4a,5-tetrahydro-1H-cyclopropa[3,4]cyclopenta[1,2-c]pyrazol-1-yl)ethanone] | 1.38 nM |
| Cc1c(C(F)F)cccc1N1CCN(C(=O)Cn2nc(C(=O)N3CCO[C@H](CO)C3)c3c2C[C@H]2C[C@@H]32)CC1 [Example 349, 1-(4-(3-(difluoromethyl)-2-methylphenyl)piperazin-1-yl)-2-((3bR,4aR)-3-((S)-2-(hydroxymethyl)morpholine-4-carbonyl)-3b,4,4a,5-tetrahydro-1H-cyclopropa[3,4]cyclopenta[1,2-c]pyrazol-1-yl)ethanone] | 4.46 nM |
| Cc1c(C(F)F)cccc1N1CCN(C(=O)Cn2nc(C(=O)N3CCO[C@@H](CO)C3)c3c2C[C@H]2C[C@@H]32)CC1 [Example 350, 1-(4-(3-(difluoromethyl)-2-methylphenyl)piperazin-1-yl)-2-((3bR,4aR)-3-((R)-2-(hydroxymethyl)morpholine-4-carbonyl)-3b,4,4a,5-tetrahydro-1H-cyclopropa[3,4]cyclopenta[1,2-c]pyrazol-1-yl)ethanone] | 5.66 nM |
| Cc1c(Cl)cccc1N1CCN(C(=O)Cn2nc(C(=O)N3CCC(O)C(C)C3)c3c2C[C@H]2C[C@@H]32)CC1 (stereo partly drawn) [Example 354, 1-(4-(3-chloro-2-methylphenyl)piperazin-1-yl)-2-((3bR,4aR)-3-(4-hydroxy-3-methylpiperidine-1-carbonyl)-3b,4,4a,5-tetrahydro-1H-cyclopropa[3,4]cyclopenta[1,2-c]pyrazol-1-yl)ethanone] | 2.41 nM |
| CC(=O)NC1CCN(C(=O)c2nn(CC(=O)N3CCN(c4cccc(C)c4C)CC34CC4)c3c2[C@@H]2C[C@@H]2C3)CC1 [Example 356, N-(1-((3bR,4aR)-1-(2-(7-(2,3-dimethylphenyl)-4,7-diazaspiro[2.5]octan-4-yl)-2-oxoethyl)-3b,4,4a,5-tetrahydro-1H-cyclopropa[3,4]cyclopenta[1,2-c]pyrazole-3-carbonyl)piperidin-4-yl)acetamide] | 0.73 nM |
| Cc1cccc(N2CCN(C(=O)Cn3nc(C(=O)N4CCC(O)(CF)CC4)c4c3C[C@H]3C[C@@H]43)C3(CC3)C2)c1C [Example 358] | 1.59 nM |
| Cc1cccc(N2CCN(C(=O)Cn3nc(C(=O)N4CC[C@H](O)[C@@H](F)C4)c4c3C[C@H]3C[C@@H]43)C3(CC3)C2)c1C [Example 359] | 1.93 nM |
| Cc1cccc(N2CCN(C(=O)Cn3nc(C(=O)N4CCO[C@H](CO)C4)c4c3C[C@H]3C[C@@H]43)C3(CC3)C2)c1C [Example 363, 1-(7-(2,3-dimethylphenyl)-4,7-diazaspiro[2.5]octan-4-yl)-2-((3bR,4aR)-3-((S)-2-(hydroxymethyl)morpholine-4-carbonyl)-3b,4,4a,5-tetrahydro-1H-cyclopropa[3,4]cyclopenta[1,2-c]pyrazol-1-yl)ethanone] | 2.52 nM |
| Cc1cccc(N2CCN(C(=O)Cn3nc(C(=O)N4CC[C@H](O)[C@H](F)C4)c4c3C[C@H]3C[C@@H]43)C3(CC3)C2)c1C [Example 364, 1-(7-(2,3-dimethylphenyl)-4,7-diazaspiro[2.5]octan-4-yl)-2-((3bR,4aR)-3-((3R,4S)-3-fluoro-4-hydroxypiperidine-1-carbonyl)-3b,4,4a,5-tetrahydro-1H-cyclopropa[3,4]cyclopenta[1,2-c]pyrazol-1-yl)ethanone] | 1.47 nM |
| Cc1cccc(N2CCN(C(=O)Cn3nc(C(=O)N4CC[C@@H](O)[C@@H](F)C4)c4c3C[C@H]3C[C@@H]43)C3(CC3)C2)c1C [Example 365, 1-(7-(2,3-dimethylphenyl)-4,7-diazapspiro[2.5]octan-4-yl)-2-((3bR,4aR)-3-((3S,4R)-3-fluoro-4-hydroxypiperidine-1-carbonyl)-3b,4,4a,5-tetrahydro-1H-cyclopropa[3,4]cyclopenta[1,2-c]pyrazol-1-yl)ethanone] | 1.19 nM |

Source: US12264134B2 (Merck Sharp & Dohme LLC, priority 2018, dated 2025)
